According to patent US11214594B2, “Antimicrobial peptide having synergistic antibacterial effect with antibiotics on multidrug resistant bacteria, and use thereof” (priority 2016, dated 2022):
Converted amounts (≈) assume the structure as drawn. Where a SMILES comes first, the peptide text is derived from it. [ ]: non-standard residue; d: D form.

Assays:
A. baumannii = experiment: MIC of antibiotic during combined treatment with antimicrobial peptide; type: cell-based, Acinetobacter baumannii; settings: for Antibiotic MIC, Erythromycin / Antibiotic MIC, Linezolid / Antibiotic MIC, Vancomycin: A. baumannii
Outline: (§1)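 First, antibiotic solution is diluted with MH medium; next, the dilution is dispensed into wells containing peptide; finally, the orientation is swapped and MIC of each mixture determined.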

E. coli [1] = experiment: as above; type: cell-based, Escherichia coli; settings: for Antibiotic MIC, Erythromycin / Antibiotic MIC, Linezolid / Antibiotic MIC, Vancomycin: E. coli
Outline: as §1

[2] = tested on: multi-drug resistant bacteria; experiment: MIC, summary statements for multi-drug resistant bacteria; type: cell-based
Protocol: For the antibacterial activity, a minimal inhibitory concentration (MIC) of a peptide in which fungus bodies were not split in an MH medium with sufficient nutrients was measured.
Specifically, the strains described in the following [Table 2] were purchased and diluted with an MH medium such that the number of bacteria was 2×10^6 colony-forming units (CFUs), 100 μl of each of the diluted strains was aliquoted into a 96-well microtiter plate, and then 100 μl of a peptide solution diluted with the MH medium (solution diluted stepwise at 2: 1) was added to each well.

MDRST 8009 = type: cell-based, Salmonella typhimurium; settings: agent alone
Outline: (§2)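 Each strain is brought to 2×10^6 CFU in nutrient-sufficient Mueller-Hinton medium and dispensed into wells. Peptide solutions, stepwise diluted 2:1 in the same medium, are then added. The minimal concentration preventing growth gives the MIC.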

MDREC 1229 = experiment: microbe, parasite or virus in culture; type: cell-based, Escherichia coli
Outline: as §2

E. coli [3] = experiment: microbe, parasite or virus in culture; type: cell-based, Escherichia coli; settings: 16 h
Outline: as §2

[4] = combined with peptide at 1 μg/ml
[5] = combined with peptide at 2 μg/ml
[6] = combined with peptide at 4 μg/ml
[7] = combined with peptide at 6 μg/ml
[8] = combined with peptide at 8 μg/ml
[9] = combined with peptide at 16 μg/ml
[10] = combined with peptide at 32 μg/ml
[11] = combined with peptide at 64 μg/ml

CC[C@H](C)[C@H](NC(=O)[C@H](CCCCN)NC(=O)[C@H](Cc1c[nH]c2ccccc12)NC(=O)[C@@H](N)CCCNC(=N)N)C(=O)N[C@@H](Cc1ccccc1)C(=O)N[C@@H](CCCCN)C(=O)N[C@@H](CCCCN)C(=O)N[C@H](C(=O)N[C@H](CC(C)C)C(=O)N[C@@H](CCCCN)C(=O)N[C@@H](CC(C)C)C(=O)N[C@@H](CC(C)C)C(=O)N[C@@H](Cc1c[nH]cn1)C(=O)N[C@@H](CCC(=O)O)C(=O)N[C@@H](Cc1ccccc1)C(=O)N[C@@H](CCCCN)C(=O)N[C@@H](CCCCN)C(=O)N[C@@H](Cc1ccccc1)C(N)=O)[C@@H](C)CC [PapMA-23, RWK IFK KIl KLL HEF KKF-NH2] (H-RWKIFKKI[dL]KLLHEFKKF-NH2; N-terminus assumed)
Synergistic effect of antibacterial activity with existing antibiotics compared with PapMA-1 (A. baumannii; A. baumannii and MDRAB 12035): level similar to that of PapMA-1 peptide | Antibiotic MIC, Erythromycin (A. baumannii; [4]): 32 µg/mL | Antibiotic MIC, Linezolid (A. baumannii; [4]): >128 µg/mL | Antibiotic MIC, Vancomycin (A. baumannii; [4]): >128 µg/mL | Antibiotic MIC, Erythromycin (A. baumannii; [5]): 32 µg/mL | Antibiotic MIC, Linezolid (A. baumannii; [5]): >128 µg/mL | Antibiotic MIC, Vancomycin (A. baumannii; [5]): >128 µg/mL | Antibiotic MIC, Erythromycin (A. baumannii; [6]): 8 µg/mL | Antibiotic MIC, Linezolid (A. baumannii; [6]): 64 µg/mL | Antibiotic MIC, Vancomycin (A. baumannii; [6]): 64 µg/mL | Antibiotic MIC, Erythromycin (A. baumannii; [7]): 4 µg/mL | Antibiotic MIC, Linezolid (A. baumannii; [7]): 16 µg/mL | Antibiotic MIC, Vancomycin (A. baumannii; [7]): 32 µg/mL | Antibiotic MIC, Erythromycin (A. baumannii; [8]): 0.5 µg/mL | Antibiotic MIC, Linezolid (A. baumannii; [8]): 4 µg/mL | Antibiotic MIC, Vancomycin (A. baumannii; [8]): 8 µg/mL | Antibiotic MIC, Erythromycin (A. baumannii; [9]): 0.25 µg/mL | Antibiotic MIC, Linezolid (A. baumannii; [9]): 2 µg/mL | Antibiotic MIC, Vancomycin (A. baumannii; [9]): 4 µg/mL | Antibiotic MIC, Erythromycin (A. baumannii; [10]): 0 µg/mL | Antibiotic MIC, Linezolid (A. baumannii; [10]): 0 µg/mL | Antibiotic MIC, Vancomycin (A. baumannii; [10]): 0 µg/mL | Antibiotic MIC, Erythromycin (A. baumannii; [11]): 0 µg/mL | Antibiotic MIC, Linezolid (A. baumannii; [11]): 0 µg/mL | Antibiotic MIC, Vancomycin (A. baumannii; [11]): 0 µg/mL | Synergistic effect of antibacterial activity with existing antibiotics compared with PapMA-1 (E. coli [1]; E. coli and MDREC1229): level similar to that of the PapMA-1 peptide | Antibiotic MIC, Erythromycin (E. coli [1]; erythromycin combined with peptide at 1 μg/ml): 128 µg/mL | Antibiotic MIC, Erythromycin (E. coli [1]; erythromycin combined with peptide at 2 μg/ml): 64 µg/mL | Antibiotic MIC, Erythromycin (E. coli [1]; erythromycin combined with peptide at 4 μg/ml): 16 µg/mL | Antibiotic MIC, Erythromycin (E. coli [1]; erythromycin combined with peptide at 6 μg/ml): 4 µg/mL | Antibiotic MIC, Erythromycin (E. coli [1]; erythromycin combined with peptide at 8 μg/ml): 2 µg/mL | Antibiotic MIC, Erythromycin (E. coli [1]; erythromycin combined with peptide at 16 μg/ml): 0.5 µg/mL | Antibiotic MIC, Erythromycin (E. coli [1]; erythromycin combined with peptide at 32 μg/ml): 0 µg/mL | Antibiotic MIC, Erythromycin (E. coli [1]; erythromycin combined with peptide at 64 μg/ml): 0 µg/mL | Antibiotic MIC, Linezolid (E. coli [1]; linezolid combined with peptide at 1 μg/ml): >128 µg/mL | Antibiotic MIC, Linezolid (E. coli [1]; linezolid combined with peptide at 2 μg/ml): 128 µg/mL | Antibiotic MIC, Linezolid (E. coli [1]; linezolid combined with peptide at 4 μg/ml): 64 µg/mL | Antibiotic MIC, Linezolid (E. coli [1]; linezolid combined with peptide at 6 μg/ml): 32 µg/mL | Antibiotic MIC, Linezolid (E. coli [1]; linezolid combined with peptide at 8 μg/ml): 16 µg/mL | Antibiotic MIC, Linezolid (E. coli [1]; linezolid combined with peptide at 16 μg/ml): 16 µg/mL | Antibiotic MIC, Linezolid (E. coli [1]; linezolid combined with peptide at 32 μg/ml): 0 µg/mL | Antibiotic MIC, Linezolid (E. coli [1]; linezolid combined with peptide at 64 μg/ml): 0 µg/mL | Antibiotic MIC, Vancomycin (E. coli [1]; vancomycin combined with peptide at 1 μg/ml): >128 µg/mL | Antibiotic MIC, Vancomycin (E. coli [1]; vancomycin combined with peptide at 2 μg/ml): >128 µg/mL | Antibiotic MIC, Vancomycin (E. coli [1]; vancomycin combined with peptide at 4 μg/ml): >128 µg/mL | Antibiotic MIC, Vancomycin (E. coli [1]; vancomycin combined with peptide at 6 μg/ml): 64 µg/mL | Antibiotic MIC, Vancomycin (E. coli [1]; vancomycin combined with peptide at 8 μg/ml): 16 µg/mL | Antibiotic MIC, Vancomycin (E. coli [1]; vancomycin combined with peptide at 16 μg/ml): 8 µg/mL | Antibiotic MIC, Vancomycin (E. coli [1]; vancomycin combined with peptide at 32 μg/ml): 0 µg/mL | Antibiotic MIC, Vancomycin (E. coli [1]; vancomycin combined with peptide at 64 μg/ml): 0 µg/mL | Antibacterial activity relative to PapMA-1 [2]: twice to four times higher | Minimal inhibitory concentration MIC (MDRST 8009): 32 µg/mL (≈ 13.3 µM) | Minimal inhibitory concentration MIC (MDREC 1229): 32 µg/mL (≈ 13.3 µM) | Peptide MIC, peptide alone (MDREC 1229): 32 µg/mL | Minimal inhibitory concentration MIC (E. coli [3]): 32 µg/mL (≈ 13.3 µM)
